Results taken from PMC10900488, “Synthesis and Evaluation of (Bis)benzyltetrahydroisoquinoline Alkaloids as Antiparasitic Agents” (JACS Au, 2024).

Experiments:
[1] = test system: L. mexicana promastigotes; assay: Growth studies, 24 h promastigote culture; format: cell-based, Leishmania (L.) mexicana
Experimental: (§1) Preliminary investigations into the mechanism of action for compounds (S)-9a, (S)-9b and (S,R)-11 were carried out using L. mexicana promastigotes. Light microscopy-based techniques were employed to further explore compound activity in a different, related Leishmania species. […] A solvent-only control using 0.1% (v/v) DMSO led to no significant effects. Cell cultures were examined by light microscopy to identify any morphological changes resulting from compound treatment (Figure 2B). […] Cells treated with the BI and BBI compounds develop a changed morphology with a spherical cell body or shortened flagellum. This effect is observed in 25% of the population for compound (S)-9a, to a greater extent (66%) for (S)-9b, and 27% for compound (S,R)-11. An abnormal number and position of Ks and Ns were often observed, with Ks and Ns sometimes less well-defined by Hoechst 33342 staining.
NCTC cells (6 × 10^4/well) were added to a 96-well plate. Treatments of the cells with selected compounds (serially diluted 1.5 to 200 μM) was performed in a humidified incubator for 96 h at 37 °C and with 5% CO2.
The MTT colorimetric method was used to determine the 50% cytotoxic concentration (CC50) and the selectivity index (CC50 against NCTC cells/IC50 against amastigotes).15 […]
[…] […] Statistical significance was derived from a two-tailed T-test.
The Graph Pad Prism 5 software was used to perform sigmoid dose-response curves for the determination of […]
[…] At 6 h and 24 h post-treatment, a 1 mL aliquot was taken for imaging. The cell cycle experiment was preformed twice independently.
Generation of mNG::RAD51 tagged cell line
The single-stranded DNA-binding protein RAD51, associated with DNA Repair, LmxM.28.0550 was tagged with endogenous fluorescent protein mNeonGreen (mNG) at the N-terminus. […]
Primers for constructs and sgRNA were designed using LeishGEdit (http://www.leishGEdit.net).
PCR was at 94 °C for 5 min, followed by 35 cycles at 94 °C (15 sec), 65 °C (15 sec), 72 °C (2 min) then finally 72 °C (1 min). […]

[2] = test system: L. mexicana promastigotes; assay: Light microscopy of cell morphology; format: cell-based, Leishmania (L.) mexicana
Experimental: as §1, with “staining. […]” for “staining.”
If the radar plot falls completely within the pink area, the compounds is predicted to have good oral […]
Figure S1. Bioavailability radars for hit compounds as generated by the SwissADME Webtool.
General Experimental Considerations
MTT was obtained from Molecular Probes® (Invitrogen™). Foetal calf serum (FCS, 10500064), M199 medium (M199 containing Earle’s salts and L-glutamine, 31100019), were purchased from Gibco. Hemin (H9039) was obtained from Sigma Aldrich. The FilterMax F5 Multi-Mode Microplate Reader spectrofluorimeter (Molecular Devices) was used to obtain all absorbance readings.
Microscopy was performed with a widefield fluorescence microscope (Axio Observer A1, Zeiss) using a 63× NA 1.4 Plan-Apochromat oil immersion objective lens and a 120V metal halide fluorescence light source (Zeiss, HXP 120V) with a Hamamatsu ORCA-Flash4.0 camera. Standard fluorescence microscopy was performed with a Green (ThorLabs, MDF-GFP2) and/or Blue (Zeiss, 49) filter cube. […]

Row | SMILES | potency in growth inhibition relative to (S)-9a and (S)-9b [1] [fold] | Abnormal morphology (spherical cell body or shortened flagellum), share of population ([2]; 5 μM) [%] | concentration sufficient to inhibit growth over 24 h [1] [µM] | Abnormal morphology (spherical cell body or shortened flagellum), share of population ([2]; 50 μM) [%]
1 | COc1cc2c(cc1OC)[C@@H](Cc1ccc(Oc3cc(C[C@H]4c5cc(OC)c(OC)cc5CCN4C)ccc3OC)cc1)N(C)CC2 [(S,R)-11, (−)-O,O′-dimethylgrisabine] | 10 | 27 |  | 
2 | COc1cc2c(cc1OC)[C@H](Cc1ccc(OC)c(OCc3ccccc3)c1)N(C)CC2 [(S)-9b] |  |  | 50 | 66
3 | COc1cc2c(cc1OC)[C@H](Cc1ccc(Br)cc1)N(C)CC2 [(S)-9a] |  |  | 50 | 25
